Consider 1 molecule from EPA's ToxValDB 9.5 (doi:10.2903/j.efsa.2010.1445).

Each structure is given as a SMILES string. Some results are limits rather than exact numbers.

The conditions of data set [1]: chronic/long-term; development.
Data set [2] deals with Anatidae. The following applies: for LD50: oral, mortality.
Data set [3] deals with Apis mellifera. The settings on record: acute; duration: 48 hours; dermal; mortality.
The subject of data set [4] is Bibionidae.
The test system of data set [5] is Coturnix coturnix. The settings on record: for LD50: acute, oral, mortality.
In data set [6] the test system is Daphnia magna. The following applies: chronic/long-term; duration: 21 days.
Data set [7] deals with Lepomis macrochirus. The following applies: acute; duration: 96 hours; mortality.
Data set [8] has as its system Oncorhynchus mykiss. The settings on record: acute; duration: 96 hours; mortality.
Data set [9] has as its system Oryctolagus sp. The settings on record: developmental; development.
For data set [10], the system named is Pimephales promelas. The following applies: chronic/long-term; duration: 33 days.
For data set [11], the system named is Rattus norvegicus. The settings on record: acute; oral; mortality.
Data set [12] has as its system Tagia sp. The settings on record: acute; mortality.
The test system of data set [13] is Typhlodromus pyri. The settings on record: not reported; mortality.

For the molecule `N#CCNC(=O)c1cnccc1C(F)(F)F` [Flonicamid], the NOEL was determined as 25 mg/kg-day in data set [1], 59 mg/kg-day in data set [2] (reproductive) and 90 mg/kg-day in [5] (reproduction developmental). Moreover, the LD50 in data set [2] (acute, unspecified, F) was 1590 mg/kg; in data set [2] (acute, unspecified, M), 2620 mg/kg; in data set [2] (short-term, feed), above 302 mg/kg-day; in data set [3], above 51.1 µg/piece; in [5] (M/F), above 2000 mg/kg; in data set [5] (diet) it was above 411 mg/kg-day. The molecule also showed an LD50 in data set [11] of 884 mg/kg. The LC50 was above 200 µg/mL in [4] (acute, duration: 48 hours, mortality); above 100 µg/mL in [7]; above 100 µg/mL in [8]; above 1000 mg/kg in data set [12]. Further, the NOEC in [4] (chronic/long-term, duration: 28 days) was 25 mg/L; in [6] it was 3.1 mg/L; in [10], 10 mg/L. For the same molecule, in [9], the no observed adverse effect level (NOAEL) – broadly, the highest tested level that showed no adverse finding – stood at 2.5 mg/kg-day. The LEL in [13] amounted to 80 g/ha.
